Experimental data reported in patent US20200164005A1, “PHARMACEUTICAL COMPOSITIONS OF A BILE ACID DERIVATIVE AND MICROBIOME AND USES THEREOF” (Intercept Pharmaceuticals, Inc., priority 2017, published 2020).

Test system: MetaCyc pathways of the gut microbiome
Assay: MetaCyc pathway differential abundance analysis of stool metagenome
Type: in vivo, human
Text: HUMAnN2 (Abubucker et al., PLoS Comput. Biol. 8, e1002358 (2012)) was used to calculate gene and pathway abundance from metagenomic sequencing data. Uniref50 (UniProt® Consortium, Nucleic Acids Res. 43, D204 (2015)) was used for gene family definition. MetaCyc (Caspi et al., Nucleic Acids Res. 42, D459 (2014)) and KEGG (Kanehisa and Goto, Nucleic Acids Res. 28, 27 (2000); Kanehisa et al., Nucleic Acids Res. 44, D457 (2016)) were used for pathway analysis. • Gene family identification: Initially, 989251 gene families were identified from the dataset by HUMAnN2. Quantile normalization was implemented. For each sample, the RPK values were added up till 90% percentile of all genes (normalization factor, nf). RPK value of each gene in each sample was then divided by the nf of the sample, and multiplied with the mean of nf of all samples. 683270 uncharacterized genes were removed. Genes undetected in over 90% of samples (101994) were removed. 203987 genes were kept. Due to the large number of genes identified, 25% of the most varying genes were selected for further analysis. The most varying genes were defined by the coefficient variation (cv=sd/mean) of log 2 transformed value. • MetaCyc pathway identification: HUMAnN2 identified 567 MetaCyc pathways from the dataset. Quantile normalization was then performed. For each sample, the abundance values were added up till 90% percentile of all pathways (normalization factor, nf). Each pathway abundance in each sample was divided by the nf of the sample, and then multiplied with the mean of nf for all samples. The low abundance pathways (52), which were not detected on over 90% of all samples, were removed. 515 high quality MetaCyc pathways were kept for further analysis. • KEGG pathway identification: HUMAnN2 identified 160 KEGG pathways from the dataset. Quantile normalization was applied, and low abundance pathways were removed. 66 high quality KEGG pathways were kept for further analysis.
gene abundance˜aov(day*OCAdose+error(subject ID)) • Pathway differential abundance analysis: For each of the identified pathways, repeated measure ANOVA was also performed to study the time effect and OCA dose effect on pathway abundance change.
pathway abundance˜aov(day*OCAdose+error(subject ID)) • FGF19 analysis: The GEE model was applied in order to study the relationship of FGF19 change with the microbiome, gene family, and the pathway abundance change over time. The R function geeglm from R package geepack was used for gee modeling. Both FGF19 level and species/gene/pathway relative abundance were log 2 transformed before applying GEE model. […]

`CC[C@H]1[C@@H](O)[C@@H]2[C@H](CC[C@]3(C)[C@@H]([C@H](C)CCC(=O)O)CC[C@@H]23)[C@@]2(C)CC[C@@H](O)C[C@@H]12` [OCA, 3α,7α-dihydroxy-6α-ethyl-5β-cholan-24-oic acid] was tested, and the “pathways associated with nucleotide and amino acid biosynthesis” value (OCA treatment) was “enriched”, the “number of MetaCyc pathways differentially abundant over time” value (out of 515, FDR<0.05 for time effect) was 41 and the “number of MetaCyc pathways with significant time effects” value (repeated measure ANOVA, FDR<0.01, Example 7) was 135. For the same compound, the “OCA dose effect on MetaCyc pathway abundance” value (repeated measure ANOVA, FDR<0.05) was “No OCA dose effect or OCA dose×day interaction was observed”.
